Results reported in ChEMBL document CHEMBL1201862, “PubChem BioAssay data set” (2004).
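1) Cells in 96-well plates. 2) Compound, 48 h, 5 concentrations. 3) Linear interpolation between surrounding doses. 4) Unreached endpoint = highest concentration. Here, GI50 denotes the concentration required for 50% inhibition of growth.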 Activity calls are given as the source filed them. Rule as the data show it: active = GI50 up to about 1.1 µM and inactive = higher.

Legend:
Test in all cases: NCI tumour cell line growth inhibition, 48 h
[1] = tested on: MOLT-4
[2] = tested on: UO-31
[3] = tested on: NCI/ADR-RES
[4] = tested on: OVCAR-3
[5] = tested on: SF-539
[6] = tested on: SN12C
[7] = tested on: DU-145
[8] = tested on: SR
[9] = tested on: XF498
[10] = tested on: OVCAR-5
[11] = tested on: KM12
[12] = tested on: HL-60
[13] = tested on: DLD-1
[14] = tested on: LXFL 529
[15] = tested on: DMS-114
[16] = tested on: M14
[17] = tested on: TK-10
[18] = tested on: A549
[19] = tested on: COLO 205
[20] = tested on: MCF7

| SMILES | GI50 [1] | GI50 [2] | GI50 [3] | GI50 [4] | GI50 [5] | GI50 [6] | GI50 [7] | GI50 [8] | GI50 [9] | GI50 [10] | GI50 [11] | GI50 [12] | GI50 [13] | GI50 [14] | GI50 [15] | GI50 [16] | GI50 [17] | GI50 [18] | GI50 [19] | GI50 [20] |
| --- | --- | --- | --- | --- | --- | --- | --- | --- | --- | --- | --- | --- | --- | --- | --- | --- | --- | --- | --- | --- |
| C=C(CN(C)C)C(=O)c1ccccc1 | 1.91 µM (inactive) | 6.93 µM (inactive) | 32 µM (inactive) | 3.63 µM (inactive) | 8.34 µM (inactive) | 17.4 µM (inactive) | 16.6 µM (inactive) | 2.09 µM (inactive) | 15.4 µM (inactive) | 16.5 µM (inactive) | 19.9 µM (inactive) | 0.577 µM (active) | 2.11 µM (inactive) | 2.15 µM (inactive) | 3.1 µM (inactive) | 2.31 µM (inactive) | 4.49 µM (inactive) | 22.5 µM (inactive) | 1.46 µM (inactive) | – |
| CCOC(=O)Nc1nc2cc(Cn3cccc3)ccc2[nH]1 | 0.64 µM (active) | 14.4 µM (inactive) | 0.387 µM (active) | 1.13 µM (inactive) | 0.865 µM (active) | 2.33 µM (inactive) | 1.78 µM (inactive) | 0.735 µM (active) | 3.5 µM (inactive) | 16 µM (inactive) | 0.853 µM (active) | 0.27 µM (active) | 3.93 µM (inactive) | 4.16 µM (inactive) | 4.9 µM (inactive) | 1.65 µM (inactive) | 19.5 µM (inactive) | 1.22 µM (inactive) | 1.84 µM (inactive) | 1.7 µM (inactive) |
| Cc1ccc(S(=O)(=O)SCc2ccccc2CSS(=O)(=O)c2ccc(C)cc2)cc1 | 16 µM (inactive) | 78.3 µM (inactive) | – | 20.5 µM (inactive) | 19.5 µM (inactive) | 17.7 µM (inactive) | – | 16.1 µM (inactive) | 24.2 µM (inactive) | > 10 µM (inactive) | 59.7 µM (inactive) | 12.1 µM (inactive) | 15.2 µM (inactive) | 15.5 µM (inactive) | 70.8 µM (inactive) | 19.1 µM (inactive) | > 100 µM (inactive) | > 100 µM (inactive) | 17 µM (inactive) | – |
